How the values were obtained:
Experiment in all cases: Cell proliferation assay (Alamar Blue)
Assay type in all cases: cell-based
NCI-H2170 = NCI-H2170 tumor cell line, 6 days culture
Method: (§1) 1. Instruments and Materials • Thermo 311 CO2 incubator; Haier biosafety cabinet; Molecular Devices microplate reader; Xiangyi brand L530 desktop low speed centrifuge; Olympus IX51 inverted fluorescence microscope, DMEM, RPMI 1640, MEM, DMEM/F12 1:1 medium, Fetal bovine serum, 0.25% trypsin solution, phosphate buffer (Thermo Fisher Shanghai Co., Ltd.); sigma dimethyl sulfoxide (DMSO), resazurin; 54 commercial tumor cell lines (including 26 liver cancer cell lines). Experimental drugs: compounds 1-12 and active drug Linifanib; chemotherapeutic drug Doxorubicin (HY-15142; Shanghai Qianyuan Biomedical Technology Co., Ltd.).
(§2) 2. Experimental Methods • 2.1 Cultivation of Different Cell Lines • 54 cell lines were cultured in a culture medium containing fetal bovine serum and placed in a 5% CO2 incubator at 37° C. for incubation. The cells were all grown in an adherent state, and the growth was observed under an inverted microscope, and subculture was performed when the cell confluence rate reached 80%-90%. The proportion and quantity of passage were determined by experimental needs. The ratio of subculture of this cell line was generally 1:2^˜1:3. • 2.2 Inhibition Effect on the Proliferation of Different Tumor Cell Lines • Cell test: 54 cell lines in logarithmic growth phase were inoculated in 96-well culture plates at 500^˜1×10^4/well (the optimal seeding density of each cell line was determined in pre-experiment), After incubating at 37° C. for 4 h in a 5% CO2 humidification incubator, added 10 μL of compounds 1-12 or Linifanib to each well, and tested 9 drug concentration gradients for each compound (diluted from the highest concentration of the test by 3.16 times). The solubility of each compound was different at a starting concentration of 100 or 30 μM, respectively. The QC reference compound Doxorubicin was added simultaneously to each cell line test, and the final drug concentrations were 10, 3.16, 1, 0.31, 0.1, 0.03, 0.01, 0.003, and 0.001 μM, respectively. In addition, a positive control group (100% inhibition) and a negative control group (0% inhibition) were set at the same time. The drug group was repeated for 2 wells per concentration, and the positive control group and the negative control group were repeated for 6 wells. After the culture was continued for 6 days in the incubator, AlamarBlue test operation was followed; • AlamarBlue test procedure: Incubated with 10 μL of AlamarBlue reagent per well for 1-4 h, shook for 1-2 min, MD microplate reader EX: 560 nm, EM: 590 nm wavelength to measure fluorescence, recorded the results, calculated the cell inhibition rate of the compound of the invention. Cell inhibition rate (%)=(A0% inhibition−A administration)/(A0% inhibition−A100% inhibition)×100%, and then using the method of nonlinear regression using GraphPad Prism 5.0 or MATILAB software (usually using four parameters) to graph and obtain a drug dose response curve to obtain an IC50 value of the compound of the present invention acting on a cancer cell line.

CCRF-CEM = CCRF-CEM tumor cell line, 6 days culture
Method: as §1, §2

HUH1 = HUH1 liver cancer cell line, 6 days culture
Method: as §1, §2

NCI-H716 = NCI-H716 tumor cell line, 6 days culture
Method: as §1, §2

22RV1 = 22RV1 tumor cell line, 6 days culture
Method: as §1, §2

HT55 = HT55 tumor cell line, 6 days culture
Method: as §1, §2

SNU475 = SNU475 liver cancer cell line, 6 days culture
Method: as §1, §2

SNU449 = SNU449 liver cancer cell line, 6 days culture
Method: as §1, §2

SK-HEP-1 = SK-HEP-1 liver cancer cell line, 6 days culture
Method: as §1, §2

JHH5 = JHH5 liver cancer cell line, 6 days culture
Method: as §1, §2

DU145 = DU145 tumor cell line, 6 days culture
Method: as §1, §2

JHH7 = JHH7 liver cancer cell line, 6 days culture
Method: as §1, §2

Hep3B2.1-7 = Hep3B2.1-7 liver cancer cell line, 6 days culture
Method: as §1, §2

SW620 = SW620 tumor cell line, 6 days culture
Method: as §1, §2

SNU398 = SNU398 liver cancer cell line, 6 days culture
Method: as §1, §2

KASUMI-1 = KASUMI-1 (leukemia cells), 6 days culture
Method: as §1, §2

JHH1 = JHH1 liver cancer cell line, 6 days culture
Method: as §1, §2

SNU739 = SNU739 liver cancer cell line, 6 days culture
Method: as §1, §2

JHH2 = JHH2 liver cancer cell line, 6 days culture
Method: as §1, §2

NCI-H1648 = NCI-H1648 tumor cell line, 6 days culture
Method: as §1, §2

HEPG2 = HEPG2 liver cancer cell line, 6 days culture
Method: as §1, §2

MG63 = MG63 tumor cell line, 6 days culture
Method: as §1, §2

MDA-MB-435S = MDA-MB-435S tumor cell line, 6 days culture
Method: as §1, §2

JHH4 = JHH4 liver cancer cell line, 6 days culture
Method: as §1, §2

MDA-MB-231 = MDA-MB-231 tumor cell line, 6 days culture
Method: as §1, §2

AN3CA = AN3CA tumor cell line, 6 days culture
Method: as §1, §2

HLF = HLF liver cancer cell line, 6 days culture
Method: as §1, §2

Cc1ccc(F)c(NC(=O)Nc2ccc(-c3cccc4[nH]nc(NC(=O)CCCCCNC(=O)C[C@H](N)C(=O)N[C@@H](CCC(=O)N[C@@H](CCC(=O)N[C@@H](CCC(=O)N[C@@H](CCC(=O)O)C(=O)O)C(=O)O)C(=O)O)C(=O)O)c34)cc2)c1 [Compound 5]
IC50 (NCI-H2170; Homo sapiens, 144 h): > 100 µM | IC50 (CCRF-CEM; Homo sapiens, 144 h): > 100 µM | IC50 (HUH1; Homo sapiens, HuH-1, 144 h): > 100 µM | IC50 (NCI-H716; Homo sapiens, 144 h): > 100 µM | IC50 (22RV1; Homo sapiens, 144 h): > 100 µM | IC50 (HT55; Homo sapiens, 144 h): > 100 µM | IC50 (SNU475; Homo sapiens, SNU-475, 144 h): > 100 µM | IC50 (SNU449; Homo sapiens, SNU-449, 144 h): > 100 µM | IC50 (SK-HEP-1; Homo sapiens, SK-HEP1, 144 h): > 100 µM | IC50 (JHH5; 144 h): > 100 µM | IC50 (DU145; Homo sapiens, DU-145, 144 h): > 100 µM | IC50 (JHH7; 144 h): > 100 µM | IC50 (Hep3B2.1-7; 144 h): > 100 µM | IC50 (SW620; Homo sapiens, SW-620, 144 h): > 100 µM | IC50 (SNU398; Homo sapiens, SNU-398, 144 h): > 100 µM | IC50 (KASUMI-1; Homo sapiens, 144 h): 4.26 µM | IC50 (JHH1; 144 h): > 100 µM | IC50 (SNU739; SNU-739, 144 h): > 100 µM | IC50 (JHH2; JHH-2, 144 h): > 100 µM | IC50 (NCI-H1648; Homo sapiens, 144 h): > 100 µM | IC50 (HEPG2; Homo sapiens, 144 h): 72.2 µM | IC50 (MG63; Homo sapiens, MG-63, 144 h): > 100 µM | IC50 (MDA-MB-435S; Homo sapiens, 144 h): > 100 µM | IC50 (JHH4; JHH-4, 144 h): > 100 µM | IC50 (MDA-MB-231; Homo sapiens, 144 h): > 100 µM | IC50 (AN3CA; Homo sapiens, AN3-CA, 144 h): 41.4 µM | IC50 (HLF; 144 h): > 100 µM

Cc1ccc(F)c(NC(=O)Nc2ccc(-c3cccc4[nH]nc(NC(=O)CCCCCCCCCCCNC(=O)C[C@H](N)C(=O)N[C@@H](CCC(=O)O)C(=O)O)c34)cc2)c1 [Compound 7]
IC50 (NCI-H2170): 48 µM | IC50 (CCRF-CEM): > 100 µM | IC50 (HUH1): > 100 µM | IC50 (NCI-H716): 41.6 µM | IC50 (22RV1): > 100 µM | IC50 (HT55): > 100 µM | IC50 (SNU475): > 100 µM | IC50 (SNU449): > 100 µM | IC50 (SK-HEP-1): > 100 µM | IC50 (JHH5): > 100 µM | IC50 (DU145): > 100 µM | IC50 (JHH7): 63.4 µM | IC50 (Hep3B2.1-7): 40.4 µM | IC50 (SW620): 56.3 µM | IC50 (SNU398): > 100 µM | IC50 (KASUMI-1): 0.23 µM | IC50 (JHH1): > 100 µM | IC50 (SNU739): > 100 µM | IC50 (JHH2): > 100 µM | IC50 (NCI-H1648): > 100 µM | IC50 (HEPG2): 9.53 µM | IC50 (MG63): > 100 µM | IC50 (MDA-MB-435S): > 100 µM | IC50 (JHH4): > 100 µM | IC50 (MDA-MB-231): > 100 µM | IC50 (AN3CA): 3.84 µM | IC50 (HLF): 72.6 µM

Cc1ccc(F)c(NC(=O)Nc2ccc(-c3cccc4[nH]nc(NC(=O)CCCCCCCCCCCNC(=O)C[C@H](N)C(=O)N[C@@H](CCC(=O)N[C@@H](CCC(=O)N[C@@H](CCC(=O)N[C@@H](CCC(=O)O)C(=O)O)C(=O)O)C(=O)O)C(=O)O)c34)cc2)c1 [Compound 8]
IC50 (NCI-H2170; Homo sapiens, 144 h): 75.3 µM | IC50 (CCRF-CEM; Homo sapiens, 144 h): > 100 µM | IC50 (HUH1; Homo sapiens, HuH-1, 144 h): > 100 µM | IC50 (NCI-H716; Homo sapiens, 144 h): 44.9 µM | IC50 (22RV1; Homo sapiens, 144 h): > 100 µM | IC50 (HT55; Homo sapiens, 144 h): > 100 µM | IC50 (SNU475; Homo sapiens, SNU-475, 144 h): > 100 µM | IC50 (SNU449; Homo sapiens, SNU-449, 144 h): > 100 µM | IC50 (SK-HEP-1; Homo sapiens, SK-HEP1, 144 h): > 100 µM | IC50 (JHH5; 144 h): > 100 µM | IC50 (DU145; Homo sapiens, DU-145, 144 h): > 100 µM | IC50 (JHH7; 144 h): 94.9 µM | IC50 (Hep3B2.1-7; 144 h): 80.2 µM | IC50 (SW620; Homo sapiens, SW-620, 144 h): 65.3 µM | IC50 (SNU398; Homo sapiens, SNU-398, 144 h): > 100 µM | IC50 (KASUMI-1; Homo sapiens, 144 h): 0.39 µM | IC50 (JHH1; 144 h): > 100 µM | IC50 (SNU739; SNU-739, 144 h): > 100 µM | IC50 (JHH2; JHH-2, 144 h): > 100 µM | IC50 (NCI-H1648; Homo sapiens, 144 h): > 100 µM | IC50 (HEPG2; Homo sapiens, 144 h): 11.5 µM | IC50 (MG63; Homo sapiens, MG-63, 144 h): > 100 µM | IC50 (MDA-MB-435S; Homo sapiens, 144 h): > 100 µM | IC50 (JHH4; JHH-4, 144 h): > 100 µM | IC50 (MDA-MB-231; Homo sapiens, 144 h): > 100 µM | IC50 (AN3CA; Homo sapiens, AN3-CA, 144 h): 5.68 µM | IC50 (HLF; 144 h): > 100 µM

Reference: patent publication US11712434B2, “Compound having anti-cancer effect, and preparation method therefor and use thereof” (3D MEDICINES (BEIJING) CO., LTD., priority 2016, dated 2023)
